Like-named read-outs stand apart in the source and are kept apart here.
Tests used:
[1] = pharmacokinetics of 16 ginsenosides in rat plasma after oral administration of RGS; assay type: in vivo
Procedure: The SD rats were randomly allocated into two groups, i.e., normal group and SA-treated group.
Blood samples were collected from the postocular vein at 0.083, 0.25, 0.5, 1, 2, 3, 4, 6, 8, 12 and 24 h after SA injection. Blood sample immediately was centrifuged at 18,000 rpm for 10 min. Plasma was withdrawn (0.15 mL) and diluted with 0.3 mL of acetonitrile and 20 µL of the IS (6 µg/mL). After 30 min, the mixture was clarified by centrifugation at 18,000 rpm for 10 min at 4 °C. The supernatant was dried under a stream of N2, and the residue was dissolved in 0.1 mL of methanol and stored at −20 °C for further analysis.
The UPLC-MS/MS system (Waters Xeve TQ, Waters, Cork, Ireland) with a column C18 (ACQUITY, 1.7 μm, 2.1 × 50 mm, Waters, Cork, Ireland) were adopted at 35 °C. Water (A) and acetonitrile (B) were used as mobile phases at a flow rate of 0.4 mL/min. The treatment of elution was performed according to following pattern: 10% B for 0–5.0 min; 10→15% B for 5.0–8.0 min; 15→25% B for 8.0–12.0 min; 25→40% for 12.0–20.0 min; 40→50% B for 20.0–25.0 min; 50→65% B for 25.0–30.0 min. With regard to mass detection, the negative mode of electrospray ionization source was adopted. The optimized parameters of multiple reactions monitoring (MRM) system including collision energy, Q1 Pre Bias, Q3 Pre Bias, collision energy and MRM transition of the 16 ginsenosides are shown in Table 1.
Based on a non-compartmental method, WinNonlin software (Phoenix, version 6.1) was employed to calculate the pharmacokinetic parameters. The statistical difference between groups was analyzed by One-Way ANOVA analysis using SPSS Version 17.0. (SPSS Inc., Chicago, IL, USA). The difference between groups was regarded significant when p < 0.05. We first normalized the pharmacokinetic data and then visualized them based on principal component analysis (PCA).

[2] = test system: scopolamine-induced learning ability impairment; design: method as in PMID 24503167; conditions: rats; cited from earlier work
[3] = test system: recognition deficits induced by cyproheptadine; design: method as in PMID 23717153; conditions: rats; cited from earlier work
[4] = SD, rat, in vivo, po, 100 mg/kg

Structure (SMILES)	Cmax ([1]; SD, rat, plasma, po, 100 mg/kg, model (scopolamine 1 mg/kg i.p.-treated) rats, oral RGS single dose 100 mg/kg, plasma, mean ± S.D., n = 5, read-out: C Max)	MRT ([1]; SD, rat, plasma, po, 100 mg/kg, model (scopolamine 1 mg/kg i.p.-treated) rats, oral RGS single dose 100 mg/kg, plasma, mean ± S.D., n = 5, read-out: MRT)	half-life ([1]; SD, rat, plasma, po, 100 mg/kg, model (scopolamine 1 mg/kg i.p.-treated) rats, oral RGS single dose 100 mg/kg, plasma, mean ± S.D., n = 5, read-out: T1/2 (converted))	Tmax ([1]; SD, rat, plasma, po, 100 mg/kg, model (scopolamine 1 mg/kg i.p.-treated) rats, oral RGS single dose 100 mg/kg, plasma, mean ± S.D., n = 5, read-out: T Max)	Cmax ([1]; SD, rat, plasma, po, 100 mg/kg, normal rats, oral RGS single dose 100 mg/kg, plasma, mean ± S.D., n = 5, read-out: C Max)	MRT ([1]; SD, rat, plasma, po, 100 mg/kg, normal rats, oral RGS single dose 100 mg/kg, plasma, mean ± S.D., n = 5, read-out: MRT)	half-life ([1]; SD, rat, plasma, po, 100 mg/kg, normal rats, oral RGS single dose 100 mg/kg, plasma, mean ± S.D., n = 5, read-out: T1/2 (converted))	Tmax ([1]; SD, rat, plasma, po, 100 mg/kg, normal rats, oral RGS single dose 100 mg/kg, plasma, mean ± S.D., n = 5, read-out: T Max)	AUC 0-t ([1]; model (scopolamine 1 mg/kg i.p.-treated) rats, oral RGS single dose 100 mg/kg, plasma, mean ± S.D., n = 5)	AUC 0-t ([1]; normal rats, oral RGS single dose 100 mg/kg, plasma, mean ± S.D., n = 5)	effect on scopolamine-induced learning ability impairment [2]	C Max [1, 4]	MRT [1, 4]	T1/2 [1, 4]	Cmax ([1]; SD, rat, in vivo, po, 100 mg/kg, C Max)	MRT ([1]; SD, rat, in vivo, po, 100 mg/kg, MRT)	half-life ([1]; SD, rat, in vivo, po, 100 mg/kg, T1/2)	Tmax ([1]; SD, rat, in vivo, po, 100 mg/kg, T Max)	effect on recognition deficits induced by cyproheptadine [3]
CC(C)=CCCC(C)(OC1OC(COC2OC(CO)C(O)C(O)C2O)C(O)C(O)C1O)C1CCC2(C)C1C(O)CC1C3(C)CCC(OC4OC(CO)C(O)C(O)C4OC4OC(CO)C(O)C(O)C4O)C(C)(C)C3CCC12C (stereo not shown) [Rb1]	34.8 ± 2.7 ng/g	6.5 ± 1.5 h	4.8 ± 1.1 h	4.1 ± 0.8 h	35.2 ± 4.9 ng/g	6.2 ± 1.8 h	4.3 ± 0.8 h	4.6 ± 1.1 h	298.9 ± 11.7 ng·h/g	255.6 ± 7.4 ng·h/g	do not	–	–	–	–	–	–	–	–
CC(C)=CCC[C@](C)(O)[C@H]1CC[C@]2(C)[C@@H]1[C@H](O)C[C@@H]1[C@@]3(C)CC[C@H](O)C(C)(C)[C@@H]3[C@@H](O[C@@H]3O[C@H](CO)[C@@H](O)[C@H](O)[C@H]3O[C@@H]3O[C@@H](C)[C@H](O)[C@@H](O)[C@H]3O)C[C@]12C [Rg2, Ginsenoside Rg2]	–	–	–	–	–	–	–	–	–	–	–	26.3 ± 4.8 ng/g	26.5 ± 3.6 h	18.9 ± 1.6 h	15.3 ± 5.6 ng/g	22.3 ± 1.4 h	19.8 ± 2.5 h	1.5 ± 0.8 h	improves
